1 compound from patent US20250205204A1, “Transcription Factor Brn2 Inhibitory Compounds for Use as Therapeutics” (The University of British Columbia, priority 2021, published 2025) can be followed below.

The test system of assay [1] is 42D^ENZR cells. The assay is described as follows: Cell proliferation, BRN2 expressing 42D cells (crystal violet). The format is cell-based. The settings on record: about 72 hours. In outline:
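42D^ENZR (~7000/well) and 16D^CRPC (~5000/well) cells plated, compound added next day from 3× media stocks. After ~72 hours, cells fixed with glutaraldehyde, stained with crystal violet, dye eluted in Sorensen solution; absorbance read at 590 nm.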

Assay [2] concerns the target T1, BRN2 (Homo sapiens, UniProt P20265).
T1 sequence (P20265 1-443): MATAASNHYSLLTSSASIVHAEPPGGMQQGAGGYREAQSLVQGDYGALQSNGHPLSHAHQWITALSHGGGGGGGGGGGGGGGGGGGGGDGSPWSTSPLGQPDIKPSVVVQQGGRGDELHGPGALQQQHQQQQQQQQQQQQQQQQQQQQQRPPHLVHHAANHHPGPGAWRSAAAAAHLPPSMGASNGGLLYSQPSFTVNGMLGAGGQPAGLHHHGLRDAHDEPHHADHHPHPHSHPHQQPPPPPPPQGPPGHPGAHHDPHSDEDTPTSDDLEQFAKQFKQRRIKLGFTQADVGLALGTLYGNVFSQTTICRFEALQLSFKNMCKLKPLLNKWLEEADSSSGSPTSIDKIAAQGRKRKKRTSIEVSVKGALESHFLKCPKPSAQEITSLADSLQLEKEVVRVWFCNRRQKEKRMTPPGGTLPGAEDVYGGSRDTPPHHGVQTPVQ
The assay is described as follows: Drug Affinity Responsive Target Stability (DARTS) assay. The settings on record: printed in BLI binding column; 42D^ENZR lysate. How it is done:
Step 2: Drug Affinity Responsive Target Stability (DARTS) Assay
This in cell assay provides a yes/no answer to direct interaction between BRN2 inhibitor and protein.
1) Prepare and place the following on ice: • Pronase • TNC 10× • 500 mM Tris-HCl (pH 8.0) • 500 mM NaCl, 100 mM CaCl2 • DMSO • Drug • 10 mL NP40+Protease inhibitor+Phosphatase inhibitor solution (can store in 4° C. and use for up to 4 weeks): • 2 mL NP40 5× • 8 mL ddH2O • 1 PhosphoSTOP™ pill • 200 uL protease inhibitor 50×
2) Remove the growth medium from the cell plate (42D^ENZR) and add 10 mL of cold PBS/vanadate.
3) Scrape the cells. Remove the PBS-cell solution and add in a falcon tube.
4) Name a new 1.5 ml Eppendorf tube and put on ice to pre-chill.
5) Centrifuge the cells at 1500 for 5 minutes at 4° C. Remove supernatant and re-suspend the cells in 600 uL NP40 lysis buffer by pipetting up and down. If the cell pellet is small use less volume, for example 300 μl)
6) Transfer the lysing cells into the pre-chilled Eppendorf tube. Incubate on ice for 20 minutes. If not continuing the DARTS on the same day, you can put the lysate in −30 and work on it later.
Preparing Cell Lysates for DARTS:
7) Centrifuge the tube at maximum speed for 25-30 minutes at 4° C.
8) Discard the pellet (either transfer the supernatant in a new tube or just take out the pellet). […]
20) The samples are ready for Western blot gel running. […]

What is called IC50 is the concentration that inhibits the measured activity by half.

Consider `O=C1/C(=N\Nc2nc3ccccc3s2)Cc2ccccc21` [7-62, (Z)-2-(2-(benzo[d]thiazol-2-yl)hydrazineylidene)-2,3-dihydro-1H-inden-1-one], for which the “Growth Specificity” value in assay [1] (42D (express BRN2) versus 16D (no BRN2) cells, result in words) was “Specific to 42D”. Also, in assay [1] (42D cells, proliferation, read-out: 42D IC50), the IC50 stood at 1 µM. In addition, the “binding observed using DARTS assay” value in assay [2] is reported as “Strong binding observed using DARTS assay”.
